Assay results taken from patent publication US20040248139A1, “Eit-6, a polypeptide encoded by an estrogen regulated gene” (priority 2001, published 2004).

Experiments:
[1] = test system: prolyl hydroxylase enzymes; settings: literature, compared with P2,5D where stated; cited from earlier work
[2] = test system: EIT-6 mRNA in BT-474 cells; experiment: Northern blot of EIT-6 mRNA, BT-474 cells; type: cell-based, human
Method: All the cell lines were obtained from the ATCC.
To determine if the induction of EIT-6 by estrogen is estrogen receptor-mediated, the effect of estrogen antagonists (4-hydroxy-tamoxifen and ICI 182,780) on EIT-6 mRNA levels was determined. BT-474 cells were cultured with […] (1 μM) or 4-hydroxy-tamoxifen (10 μM) for 6 hours prior to estrogen (10 nM) treatment for an additional 24 hours. […] There are multiple mechanisms by which estrogen can regulate the expression of EIT-6, e.g., (1) directly by transcriptional regulation, (2) directly by influencing mRNA stability, or (3) indirectly through other transcription factors/signaling pathways. […] To further investigate if EIT-6 is a direct or indirect target of estrogen receptors, EIT-6 mRNA levels were measured following estrogen treatment BT-474 cells in the presence of a protein synthesis inhibitor (cycloheximide) (FIG. 2B). The cells were treated with cycloheximide (10 μg/ml) for 16 hours in the presence or absence of estrogen.

[3] = test system: EIT-6 mRNA in ZR75-1 cells; experiment: Northern blot of EIT-6 mRNA, ZR75-1 cells; type: cell-based, human
Description: To confirm the result of the SAGE experiment, probes corresponding to some of the cDNA clones were generated and the induction of the relevant genes was confirmed by Northern blot analysis (FIG. 1A) performed as previously described [Polyak et al. (1997)]. Of the twenty estrogen- or tamoxifen-induced genes (Table 1), only one (EIT-10;cathepsin D) had previously been implicated as a target of ER-transcriptional activation and three had not previously been described at all. In most cases the sequences of the relevant genes provided important clues as to their potential functions (Table 1). Several of the genes are predicted to be involved in the regulation of cell proliferation and/or survival. […]

[4] = test system: putative estrogen responsive elements (ERE) in HepG2 cells; experiment: Luciferase reporter assay, ERE concatamer constructs with estrogen receptor α in HepG2 cells
Method: The cells were transfected using FuGene 6 (Roche, Basel, Switzerland) and treated with estrogen the day after transfection. On the day following estrogen treatment luciferase activity was determined using a luciferase assay system (Promega, Madison, Wis.). […] To determine whether these putative EREs could confer estrogen responsiveness, various constructs containing concatemers of each of these elements (in a variety of combinations) up-stream of a luciferase gene were generated (FIG. 2D). These concatamer constructs were generated by subcloning concatamers of PCR-derived fragments (of the EIT-6 promoter region) containing the putative ERE's into pBR-pl-TATA-luc [Polyak et al. (1997) Nature 389:300-305]. Luciferase and β-galactosidase activity was measured following transient co-transfection of these constructs with the estrogen receptor α-encoding construct (referred to above) and a vector containing a β-galactosidase-encoding cDNA sequence under control of a constitutive (CMV) promoter into HepG2 cells as described above and the values of luciferase activity were normalized for transfection efficiency by calculating ratios of luciferase activity to β-galactosidase activity which was measured using the Aurora GAL-XE reporter gene assay (ICN, Costa Mesa, Calif.). “Fold induction” was calculated according to the following formula:
Fold induction=(luciferase activity in estrogen treated cells÷βgalactosidase activity in estrogen treated cells)÷(luciferase activity in control cells÷βgalactosidase activity in control cells).

[5] = test system: ZR75-1 breast cancer cells; experiment: SAGE (serial analysis of gene expression) after estrogen or tamoxifen treatment; type: cell-based, human; settings: 10 nM estradiol, 16 h
Description: (§1) In order to identify genes involved in the response of breast cancer cells to estrogen and tamoxifen, SAGE libraries were generated from an estrogen- dependent human breast cancer cell line (ZR75-1; obtained from the American type Culture Collection (ATTC), Manassas, VA) prior to and following estrogen or tamoxifen treatment. SAGE facilitated the determination of the absolute abundance of thousands of different mRNAs simultaneously in a comprehensive and unbiased way and to detect even slight differences in expression levels between samples [Velculescu et al. (1995) Science 270: 484-487; Polyak et al. (1997) Nature 389:300-305; Lal et al. (1999) Cancer Res. 59:5403-5607; Velculescu et al. (1999) Nature Genetics 23:387-388]. ZR75-1 cells cultured in the absence of steroid hormones (i.e., in phenol red-free culture medium containing charcoal-treated fetal bovine serum (FBS) (5%)) for seven days were split into three aliquots which were then cultured in fresh steroid-free medium containing no additive, 10 nM estradiol, or 10 μM 4-hydroxy-tamoxifen. Cells were harvested from the cultures after sixteen hours and response to the hormone treatment was confirmed by FACS analysis of cell cycle progression and by Northern blot analysis to test for the expression of known estrogen target genes.
SAGE libraries from untreated, estrogen-treated and tamoxifen-treated ZR75-1 cells were generated using a modified micro-SAGE protocol [Porter et al. (2001) Cancer Res. 61: 5697-5702]. From the three SAGE libraries 140,638 tags were obtained, approximately 45,000 from each library. Hierarchical clustering was applied to data using the Auster program developed by Eisen et al. [(1998) Proc. Natl. Acad. Sci. USA. 95: 14863-14868]. Data was log-transformed and filtered for at least 1 observations abs Val 5 and Maxval-Minval >5. Using these settings 2,818 genes (out of 16,808 total) were included in the analysis that led to the identification of several estrogen- and/or tamoxifen-induced transcripts. […] Linking the UniGene database to the SAGE data identified the cDNAs corresponding to the SAGE tags in most of the cases (Table 1). Genes were named according to their relative abundance in the three SAGE libraries: EIT (Estrogen Induced Tag)-induced by estrogen; TIT (Tamoxifen Induced Tag)-induced by tamoxifen; and DET (Differently Expressed Tag)-differently expressed following estrogen or tamoxifen treatment.

[6] = test system: T47D ER+ breast cancer cells; experiment: Colony assay, T47D cells; type: cell-based, human; settings: control pCEP4 and EIT-6 transfected cells, charcoal/dextran treated FBS, estrogen 10 nM
Method: In order to test whether EIT-6 expresssion influences cell proliferation and/or survival, colony assays were performed. […] T47D ER+breast cancer cells were transfected with a control construct (pCEP4) or the pCEP4-EIT6 construct. Stable transfectants were selected by culturing the cells in the presence of hygromycin for two weeks after which colonies were visualized by crystal violet staining. […] The number of colonies per cm^2 was determined by spot-densitometry-assisted counting using a MultiImage Lightbox (Alfa Innotech, San Leandro, Calif.). Two flasks per experimental group and two independent areas in each flask were analyzed.
To test if expression of EIT-6 can confer estrogen independent growth, ER+and estrogen dependent T47D breast cancer cells were transfected with control pCEP4 or pCEP4-EIT6 constructs. Stable transfectants were selected by culturing the cells in phenol red-free medium supplemented with charcoal/dextran treated (and thus steroid hormone depleted) FBS (5%) and hygromycin. Half the flasks contained estrogen (10 nM). After two weeks of dry selection, colonies were visualized by crystal violet staining and counted as described above.

EIT-6 promoter region = settings: ~5.5 kb EIT-6 promoter construct co-transfected with estrogen receptor α
Method: To further characterize the mechanism by which the estrogen receptor induces EIT-6, a fragment of the proximal EIT-6 promoter was tested for its ability to confer estrogen responsiveness on a luciferase reporter gene. The luciferase construct was generated by subcloning a BAC (bacterial artificial chromosome)-derived fragment of EIT-6 promoter region (approximately 5.5 kb in length) into pBR-pl-luc [Polyak et al. (1997)]. The cells were transfected using FuGene 6 (Roche, Basel, Switzerland) and treated with estrogen the day after transfection. On the day following estrogen treatment luciferase activity was determined using a luciferase assay system (Promega, Madison, Wis.). […] Luciferase and β-galactosidase activity was measured following transient co-transfection of these constructs with the estrogen receptor α-encoding construct (referred to above) and a vector containing a β-galactosidase-encoding cDNA sequence under control of a constitutive (CMV) promoter into HepG2 cells as described above and the values of luciferase activity were normalized for transfection efficiency by calculating ratios of luciferase activity to β-galactosidase activity which was measured using the Aurora GAL-XE reporter gene assay (ICN, Costa Mesa, Calif.). “Fold induction” was calculated according to the following formula:

ZR75-1 cells = experiment: FACS analysis of cell cycle progression; type: cell-based, human; settings: steroid-deprived ZR75-1 cells; 10 nM estradiol or 10 μM 4-hydroxy-tamoxifen, 16 h
Description: as §1

[7] = BT-474, 16 h, cycloheximide 10 μg/ml

C[C@@H](NC(=O)C(=O)O)C(=O)O [N-oxalyl-2R-alanine]
inhibition of prolyl hydroxylase [1]: not

C[C@H](NC(=O)C(=O)O)C(=O)O [N-oxalyl-2S-alanine]
inhibition of prolyl hydroxylase [1]: Inhibitory

C[C@]12CC[C@@H]3c4ccc(O)cc4C[C@@H](CCCCCCCCC[S+]([O-])CCCC(F)(F)C(F)(F)F)[C@H]3[C@@H]1CC[C@@H]2O (stereo partly shown) [ICI 182,780]
abolition of estrogen induction of EIT-6 mRNA ([2]; BT-474, antagonist (ICI 1 μM or 4-hydroxy-tamoxifen 10 μM) 6 h before estrogen 10 nM for 24 h): completely

C[C@]12CC[C@@H]3c4ccc(O)cc4CC[C@H]3[C@@H]1CC[C@@H]2O [estrogen, estradiol]
induction of EIT-6 mRNA [3]: ~5 fold | EIT-6 mRNA levels, separate treatment [2, 7]: modestly increased | EIT-6 mRNA levels, estrogen in the presence of cycloheximide ([2]; BT-474, cycloheximide 10 μg/ml, 16 h): much stronger induction | induction of EIT-6 mRNA ([2]; BT-474 cells, Northern blot): ~10 fold | fold induction of luciferase by estrogen ([4]; E4 construct (3 copies of the E4 ERE), HepG2, normalized to β-galactosidase): 4-5 fold | fold induction of luciferase by estrogen ([4]; VIT construct (two copies of vitellogenin consensus ERE), HepG2): 10-11 fold | estrogen responsiveness of luciferase constructs ([4]; most of the putative ERE combinations, HepG2): relatively weak | SAGE tags, E (estrogen-treated) ([5]; gene DET-1, untreated C = 4): 15 | SAGE tags, E (estrogen-treated) ([5]; gene DET-2, untreated C = 3): 13 | SAGE tags, E (estrogen-treated) ([5]; gene DET-13, untreated C = 7): 1 | SAGE tags, E (estrogen-treated) ([5]; gene DET-14, untreated C = 4): 1 | SAGE tags, E (estrogen-treated) ([5]; gene DET-15 (USF2), untreated C = 11): 1 | SAGE tags, E (estrogen-treated) ([5]; gene DET-16, untreated C = 7): 0 | SAGE tags, E (estrogen-treated) ([5]; gene DET-17 (SULT 1A), untreated C = 0): 1 | SAGE tags, E (estrogen-treated) ([5]; gene EIT-1, untreated C = 1): 14 | SAGE tags, E (estrogen-treated) ([5]; gene EIT-2 (TIM17B), untreated C = 1): 14 | SAGE tags, E (estrogen-treated) ([5]; gene EIT-3, untreated C = 2): 19 | SAGE tags, E (estrogen-treated) ([5]; gene EIT-4, untreated C = 2): 18 | SAGE tags, E (estrogen-treated) ([5]; gene EIT-5, untreated C = 5): 27 | SAGE tags, E (estrogen-treated) ([5]; gene EIT-6, untreated C = 5): 26 | SAGE tags, E (estrogen-treated) ([5]; gene EIT-10 (Cathepsin D), untreated C = 112): 451 | SAGE tags, E (estrogen-treated) ([5]; gene TIT-1, untreated C = 0): 4 | SAGE tags, E (estrogen-treated) ([5]; gene TIT-2, untreated C = 0): 3 | SAGE tags, E (estrogen-treated) ([5]; gene TIT-3, untreated C = 8): 28 | SAGE tags, E (estrogen-treated) ([5]; gene TIT-4, untreated C = 7): 27 | SAGE tags, E (estrogen-treated) ([5]; gene TIT-5, untreated C = 9): 19 | colony numbers on addition of estrogen [6]: increased colony numbers | luciferase activity (EIT-6 promoter region): modest but reproducible induction | S-phase entry (ZR75-1 cells): stimulated rapid S-phase entry

C[C@@H]1C[C@@H]([C@H](O)CC2CC(=O)NC(=O)C2)C(=O)[C@@H](C)C1 [cycloheximide]
EIT-6 mRNA levels, separate treatment [2, 7]: modestly increased

O=C(O)CNC(=O)C(=O)O [N-oxalylglycine]
inhibition of prolyl hydroxylase [1]: Inhibitory
